Source: article PMC12670405, “Second-Generation AURKA-Targeting PROTACs: Structural Optimization toward in Vivo Degradation in Neuroblastoma” (Journal of Medicinal Chemistry, 2025)

Assays:
Assay in all cases: KINOMEscan scanMAX
Assay type in all cases: binding
Settings in all cases: read-out: Percent Control
EPHB3 = molecular target: T1, EPHB3 (Homo sapiens, UniProt P54753)
T1 construct: purchased Eurofins Discovery (DiscoverX KINOMEscan scanMAX)
Procedure: (§1) The kinome-wide binding assay was performed by Eurofins Discovery using the scanMAX screening platform. More information can be found on the Eurofins Discovery Web site.

LATS1 = molecular target: T2, LATS1 (Homo sapiens, UniProt O95835)
T2 construct: purchased Eurofins Discovery (DiscoverX KINOMEscan scanMAX)
Procedure: as §1

DLK = molecular target: T3, DLK (Homo sapiens, UniProt Q12852)
T3 construct: purchased Eurofins Discovery (DiscoverX KINOMEscan scanMAX)
Procedure: as §1

YANK1 = molecular target: T4, YANK1 (Homo sapiens, UniProt Q8WU08)
T4 construct: purchased Eurofins Discovery (DiscoverX KINOMEscan scanMAX)
Procedure: as §1

DRAK1 = molecular target: T5, DRAK1 (Homo sapiens, UniProt Q9UEE5)
T5 construct: purchased Eurofins Discovery (DiscoverX KINOMEscan scanMAX)
Procedure: as §1

HIPK3 = molecular target: T6, HIPK3 (Homo sapiens, UniProt Q9H422)
T6 construct: purchased Eurofins Discovery (DiscoverX KINOMEscan scanMAX)
Procedure: as §1

BUB1 = molecular target: T7, BUB1 (Homo sapiens, UniProt O43683)
T7 construct: purchased Eurofins Discovery (DiscoverX KINOMEscan scanMAX)
Procedure: as §1

FGFR4 = molecular target: T8, FGFR4 (Homo sapiens, UniProt P22455)
T8 construct: purchased Eurofins Discovery (DiscoverX KINOMEscan scanMAX)
Procedure: as §1

PRKG1 = molecular target: T9, PRKG1 (Homo sapiens, UniProt Q13976)
T9 construct: purchased Eurofins Discovery (DiscoverX KINOMEscan scanMAX)
Procedure: as §1

EPHA4 = molecular target: T10, EPHA4 (Homo sapiens, UniProt P54764)
T10 construct: purchased Eurofins Discovery (DiscoverX KINOMEscan scanMAX)
Procedure: as §1

MKNK2 = molecular target: T11, MKNK2 (Homo sapiens, UniProt Q9HBH9)
T11 construct: purchased Eurofins Discovery (DiscoverX KINOMEscan scanMAX)
Procedure: as §1

CSNK1E = molecular target: T12, CSNK1E (Homo sapiens, UniProt P49674)
T12 construct: purchased Eurofins Discovery (DiscoverX KINOMEscan scanMAX)
T12 sequence (P49674 whole entry): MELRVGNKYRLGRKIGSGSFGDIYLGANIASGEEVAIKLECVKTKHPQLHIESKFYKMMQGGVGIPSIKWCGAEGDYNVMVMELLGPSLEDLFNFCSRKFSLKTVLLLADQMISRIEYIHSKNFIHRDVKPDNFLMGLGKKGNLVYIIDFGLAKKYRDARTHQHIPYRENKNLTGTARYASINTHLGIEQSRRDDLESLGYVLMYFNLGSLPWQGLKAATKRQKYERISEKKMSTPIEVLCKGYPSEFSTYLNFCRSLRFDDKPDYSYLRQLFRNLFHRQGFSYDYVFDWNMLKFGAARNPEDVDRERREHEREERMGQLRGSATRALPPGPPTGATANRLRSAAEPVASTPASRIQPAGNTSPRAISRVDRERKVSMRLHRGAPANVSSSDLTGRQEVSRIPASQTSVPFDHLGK
Procedure: as §1

PIK3CA(E542K) = molecular target: T13, PIK3CA(E542K) (Homo sapiens, UniProt P42336, E542K)
T13 construct: purchased Eurofins Discovery (DiscoverX KINOMEscan scanMAX)
T13 sequence (P42336 whole entry E542K): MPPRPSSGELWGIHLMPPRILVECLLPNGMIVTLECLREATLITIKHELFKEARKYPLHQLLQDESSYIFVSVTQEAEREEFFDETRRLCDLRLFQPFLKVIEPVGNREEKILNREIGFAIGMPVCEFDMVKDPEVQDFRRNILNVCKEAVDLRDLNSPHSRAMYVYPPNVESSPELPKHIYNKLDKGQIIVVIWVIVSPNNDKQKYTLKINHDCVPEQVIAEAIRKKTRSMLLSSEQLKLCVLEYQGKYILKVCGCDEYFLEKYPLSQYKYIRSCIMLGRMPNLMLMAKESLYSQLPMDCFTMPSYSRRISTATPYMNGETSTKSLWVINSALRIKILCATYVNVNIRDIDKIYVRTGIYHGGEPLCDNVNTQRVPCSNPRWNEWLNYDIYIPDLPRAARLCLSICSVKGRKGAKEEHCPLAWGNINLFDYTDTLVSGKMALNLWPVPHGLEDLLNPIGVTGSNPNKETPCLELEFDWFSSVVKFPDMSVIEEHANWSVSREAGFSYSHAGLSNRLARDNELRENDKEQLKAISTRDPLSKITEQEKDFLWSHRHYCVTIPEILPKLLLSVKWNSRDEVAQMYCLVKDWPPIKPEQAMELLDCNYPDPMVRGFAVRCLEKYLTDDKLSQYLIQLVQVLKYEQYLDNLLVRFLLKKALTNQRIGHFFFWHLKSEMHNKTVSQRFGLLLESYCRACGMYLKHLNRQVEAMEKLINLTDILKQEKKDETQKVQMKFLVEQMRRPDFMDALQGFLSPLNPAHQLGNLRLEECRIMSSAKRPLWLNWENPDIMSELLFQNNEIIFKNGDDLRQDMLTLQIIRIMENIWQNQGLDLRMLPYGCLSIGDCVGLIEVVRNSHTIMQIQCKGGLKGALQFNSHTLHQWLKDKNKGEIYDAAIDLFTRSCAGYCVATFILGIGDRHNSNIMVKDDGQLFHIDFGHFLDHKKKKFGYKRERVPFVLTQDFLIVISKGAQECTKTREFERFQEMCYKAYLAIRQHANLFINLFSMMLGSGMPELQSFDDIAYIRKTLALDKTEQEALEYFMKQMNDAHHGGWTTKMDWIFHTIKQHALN
Procedure: as §1

CAMKK1 = molecular target: T14, CAMKK1 (Homo sapiens, UniProt Q8N5S9)
T14 construct: purchased Eurofins Discovery (DiscoverX KINOMEscan scanMAX)
Procedure: as §1

CDK8 = molecular target: T15, CDK8 (Homo sapiens, UniProt P49336)
T15 construct: purchased Eurofins Discovery (DiscoverX KINOMEscan scanMAX)
Procedure: as §1

TXK = molecular target: T16, TXK (Homo sapiens, UniProt P42681)
T16 construct: purchased Eurofins Discovery (DiscoverX KINOMEscan scanMAX)
T16 sequence (P42681 whole entry): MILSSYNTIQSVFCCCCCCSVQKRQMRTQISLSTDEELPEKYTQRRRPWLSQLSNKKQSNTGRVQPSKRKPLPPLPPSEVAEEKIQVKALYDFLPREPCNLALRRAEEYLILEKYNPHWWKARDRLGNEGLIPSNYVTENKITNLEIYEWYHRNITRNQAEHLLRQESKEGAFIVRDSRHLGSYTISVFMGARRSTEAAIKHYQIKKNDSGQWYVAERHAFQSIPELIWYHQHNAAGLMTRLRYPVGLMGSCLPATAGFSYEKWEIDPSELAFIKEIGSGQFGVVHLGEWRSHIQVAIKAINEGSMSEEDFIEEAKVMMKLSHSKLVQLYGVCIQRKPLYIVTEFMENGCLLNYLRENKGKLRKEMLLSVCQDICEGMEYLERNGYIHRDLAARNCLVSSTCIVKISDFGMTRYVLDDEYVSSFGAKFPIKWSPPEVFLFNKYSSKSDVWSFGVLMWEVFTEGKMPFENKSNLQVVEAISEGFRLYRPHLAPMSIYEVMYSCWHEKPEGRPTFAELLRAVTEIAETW
Procedure: as §1

ABL2 = molecular target: T17, ABL2 (Homo sapiens, UniProt P42684)
T17 construct: purchased Eurofins Discovery (DiscoverX KINOMEscan scanMAX)
Procedure: as §1

CTK = molecular target: T18, CTK (Homo sapiens, UniProt P42679)
T18 construct: purchased Eurofins Discovery (DiscoverX KINOMEscan scanMAX)
T18 sequence (P42679 whole entry): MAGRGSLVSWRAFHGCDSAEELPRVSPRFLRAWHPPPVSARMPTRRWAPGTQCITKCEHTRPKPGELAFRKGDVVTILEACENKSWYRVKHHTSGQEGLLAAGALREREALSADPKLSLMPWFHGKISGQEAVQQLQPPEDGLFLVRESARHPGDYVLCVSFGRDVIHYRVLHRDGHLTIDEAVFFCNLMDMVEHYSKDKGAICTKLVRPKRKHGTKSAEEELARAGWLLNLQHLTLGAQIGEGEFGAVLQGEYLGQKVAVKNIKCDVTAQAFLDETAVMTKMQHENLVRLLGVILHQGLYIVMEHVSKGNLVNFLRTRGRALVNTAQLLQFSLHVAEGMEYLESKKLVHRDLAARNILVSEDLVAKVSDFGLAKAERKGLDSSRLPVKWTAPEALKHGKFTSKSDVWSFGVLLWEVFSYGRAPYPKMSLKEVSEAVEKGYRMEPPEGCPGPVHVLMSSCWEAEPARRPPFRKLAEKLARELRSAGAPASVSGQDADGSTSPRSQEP
Procedure: as §1

TLK1 = molecular target: T19, TLK1 (Homo sapiens, UniProt Q9UKI8)
T19 construct: purchased Eurofins Discovery (DiscoverX KINOMEscan scanMAX)
T19 sequence (Q9UKI8 whole entry): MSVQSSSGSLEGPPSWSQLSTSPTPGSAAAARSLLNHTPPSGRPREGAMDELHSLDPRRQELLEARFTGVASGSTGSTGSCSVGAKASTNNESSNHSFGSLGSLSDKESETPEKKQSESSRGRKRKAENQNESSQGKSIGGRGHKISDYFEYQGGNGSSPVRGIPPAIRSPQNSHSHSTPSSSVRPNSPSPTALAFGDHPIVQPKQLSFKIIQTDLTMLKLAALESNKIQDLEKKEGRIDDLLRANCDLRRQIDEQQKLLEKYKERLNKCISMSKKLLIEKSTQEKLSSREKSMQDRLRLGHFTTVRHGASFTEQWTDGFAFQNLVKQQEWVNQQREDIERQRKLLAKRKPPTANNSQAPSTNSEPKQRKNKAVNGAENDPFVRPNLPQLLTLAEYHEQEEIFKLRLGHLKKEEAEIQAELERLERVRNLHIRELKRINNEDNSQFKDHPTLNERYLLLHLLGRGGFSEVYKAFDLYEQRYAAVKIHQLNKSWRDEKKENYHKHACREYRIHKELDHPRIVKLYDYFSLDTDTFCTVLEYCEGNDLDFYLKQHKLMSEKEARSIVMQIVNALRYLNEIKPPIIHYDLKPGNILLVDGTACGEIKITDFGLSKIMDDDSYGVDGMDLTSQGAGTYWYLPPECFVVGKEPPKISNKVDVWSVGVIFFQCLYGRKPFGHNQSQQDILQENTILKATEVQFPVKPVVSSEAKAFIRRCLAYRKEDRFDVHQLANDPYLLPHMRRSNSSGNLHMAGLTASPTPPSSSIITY
Procedure: as §1

PRP4 = molecular target: T20, PRP4 (Homo sapiens, UniProt Q13523)
T20 construct: purchased Eurofins Discovery (DiscoverX KINOMEscan scanMAX)
Procedure: as §1

EPHA2 = molecular target: T21, EPHA2 (Homo sapiens, UniProt P29317)
T21 construct: purchased Eurofins Discovery (DiscoverX KINOMEscan scanMAX)
Procedure: as §1

TRKA = molecular target: T22, TRKA (Homo sapiens, UniProt P04629)
T22 construct: purchased Eurofins Discovery (DiscoverX KINOMEscan scanMAX)
Procedure: as §1

DAPK3 = molecular target: T23, DAPK3 (Homo sapiens, UniProt O43293)
T23 construct: purchased Eurofins Discovery (DiscoverX KINOMEscan scanMAX)
Procedure: as §1

PIP5K1A = molecular target: T24, PIP5K1A (Homo sapiens, UniProt Q99755)
T24 construct: purchased Eurofins Discovery (DiscoverX KINOMEscan scanMAX)
Procedure: as §1

[1] = molecular target: T25, RSK4(Kin.Dom.2-C-terminal) (Homo sapiens, UniProt Q9UK32)
T25 construct: RSK4(Kin.Dom.2-C-terminal); purchased Eurofins Discovery (DiscoverX KINOMEscan scanMAX)
T25 sequence (Q9UK32 401-745 limits assumed): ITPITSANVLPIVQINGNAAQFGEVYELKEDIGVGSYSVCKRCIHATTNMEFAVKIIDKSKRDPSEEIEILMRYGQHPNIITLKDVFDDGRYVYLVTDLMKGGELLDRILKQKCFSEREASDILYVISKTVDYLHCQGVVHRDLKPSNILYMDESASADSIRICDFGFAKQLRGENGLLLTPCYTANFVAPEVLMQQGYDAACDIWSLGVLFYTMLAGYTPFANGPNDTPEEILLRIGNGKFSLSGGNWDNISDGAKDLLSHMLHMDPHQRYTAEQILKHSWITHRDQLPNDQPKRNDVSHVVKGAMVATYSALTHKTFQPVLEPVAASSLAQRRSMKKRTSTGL
Procedure: as §1

LTK = molecular target: T26, LTK (Homo sapiens, UniProt P29376)
T26 construct: purchased Eurofins Discovery (DiscoverX KINOMEscan scanMAX)
Procedure: as §1

SRC = molecular target: T27, SRC (Homo sapiens, UniProt P12931)
T27 construct: purchased Eurofins Discovery (DiscoverX KINOMEscan scanMAX)
Procedure: as §1

MEK6 = molecular target: T28, MEK6 (Homo sapiens, UniProt P52564)
T28 construct: purchased Eurofins Discovery (DiscoverX KINOMEscan scanMAX)
T28 sequence (P52564 whole entry): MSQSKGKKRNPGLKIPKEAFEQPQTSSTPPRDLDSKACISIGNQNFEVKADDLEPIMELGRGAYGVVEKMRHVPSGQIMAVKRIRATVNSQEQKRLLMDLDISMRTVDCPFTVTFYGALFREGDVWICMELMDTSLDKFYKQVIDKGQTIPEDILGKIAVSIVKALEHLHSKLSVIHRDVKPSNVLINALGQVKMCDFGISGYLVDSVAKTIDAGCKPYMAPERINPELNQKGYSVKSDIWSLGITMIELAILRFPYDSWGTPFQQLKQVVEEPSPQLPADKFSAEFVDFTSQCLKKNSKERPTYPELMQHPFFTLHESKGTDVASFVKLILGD
Procedure: as §1

HIPK1 = molecular target: T29, HIPK1 (Homo sapiens, UniProt Q86Z02)
T29 construct: purchased Eurofins Discovery (DiscoverX KINOMEscan scanMAX)
Procedure: as §1

CAMK1B = molecular target: T30, CAMK1B (Homo sapiens, UniProt Q6P2M8)
T30 construct: purchased Eurofins Discovery (DiscoverX KINOMEscan scanMAX)
Procedure: as §1

MAP4K2 = molecular target: T31, MAP4K2 (Homo sapiens, UniProt Q12851)
T31 construct: purchased Eurofins Discovery (DiscoverX KINOMEscan scanMAX)
Procedure: as §1

MUSK = molecular target: T32, MUSK (Homo sapiens, UniProt O15146)
T32 construct: purchased Eurofins Discovery (DiscoverX KINOMEscan scanMAX)
Procedure: as §1

CIT = molecular target: T33, CIT (Homo sapiens, UniProt O14578)
T33 construct: purchased Eurofins Discovery (DiscoverX KINOMEscan scanMAX)
Procedure: as §1

RET(M918T) = molecular target: T34, RET(M918T) (Homo sapiens, UniProt P07949, M918T)
T34 construct: purchased Eurofins Discovery (DiscoverX KINOMEscan scanMAX)
Procedure: as §1

T1 sequence (P54753 34-998): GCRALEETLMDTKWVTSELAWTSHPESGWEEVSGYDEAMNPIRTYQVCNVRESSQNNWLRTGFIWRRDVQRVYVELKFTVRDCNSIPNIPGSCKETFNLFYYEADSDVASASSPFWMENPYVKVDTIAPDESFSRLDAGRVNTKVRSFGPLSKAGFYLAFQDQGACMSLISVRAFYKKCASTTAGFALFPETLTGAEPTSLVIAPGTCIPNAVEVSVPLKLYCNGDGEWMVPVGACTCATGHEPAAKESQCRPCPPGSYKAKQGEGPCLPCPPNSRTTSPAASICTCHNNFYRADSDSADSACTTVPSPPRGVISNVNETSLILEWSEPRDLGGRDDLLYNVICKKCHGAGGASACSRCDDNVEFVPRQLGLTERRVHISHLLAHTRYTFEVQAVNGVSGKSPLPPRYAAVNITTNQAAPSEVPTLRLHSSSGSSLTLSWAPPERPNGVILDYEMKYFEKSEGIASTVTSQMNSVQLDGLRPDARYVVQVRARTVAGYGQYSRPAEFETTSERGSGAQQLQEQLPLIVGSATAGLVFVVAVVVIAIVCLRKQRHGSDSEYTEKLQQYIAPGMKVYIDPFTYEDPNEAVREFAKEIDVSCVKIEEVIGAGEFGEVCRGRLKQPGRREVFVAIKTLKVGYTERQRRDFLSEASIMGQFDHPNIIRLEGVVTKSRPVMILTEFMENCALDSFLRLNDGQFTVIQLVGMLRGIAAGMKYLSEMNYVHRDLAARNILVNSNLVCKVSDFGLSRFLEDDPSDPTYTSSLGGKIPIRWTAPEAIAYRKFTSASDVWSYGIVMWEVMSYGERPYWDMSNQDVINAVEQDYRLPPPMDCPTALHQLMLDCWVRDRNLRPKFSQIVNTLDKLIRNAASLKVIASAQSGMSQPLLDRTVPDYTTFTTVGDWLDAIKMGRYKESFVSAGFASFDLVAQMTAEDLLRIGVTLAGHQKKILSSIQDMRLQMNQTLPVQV

## Cc1cc(Nc2ccc(F)c(CC3(C(=O)N4CCC(F)(CN5CCN(c6ccc(N7CCC(=O)NC7=O)cn6)CC5)CC4)CCN(Cc4cccc(Cl)c4F)CC3)n2)n[nH]1 [SK5527]
EPHB3; 100 nM
  remaining binding at 0.1 µM: 100%
EPHB3; 1000 nM
  remaining binding at 1 µM: 100%
LATS1; 100 nM
  remaining binding at 0.1 µM: 100%
LATS1; 1000 nM
  remaining binding at 1 µM: 100%
DLK; 100 nM
  remaining binding at 0.1 µM: 71%
DLK; 1000 nM
  remaining binding at 1 µM: 55%
YANK1; 100 nM
  remaining binding at 0.1 µM: 100%
YANK1; 1000 nM
  remaining binding at 1 µM: 77%
DRAK1; 100 nM
  remaining binding at 0.1 µM: 100%
DRAK1; 1000 nM
  remaining binding at 1 µM: 87%
HIPK3; 100 nM
  remaining binding at 0.1 µM: 100%
HIPK3; 1000 nM
  remaining binding at 1 µM: 66%
BUB1; 100 nM
  remaining binding at 0.1 µM: 100%
BUB1; 1000 nM
  remaining binding at 1 µM: 100%
FGFR4; 100 nM
  remaining binding at 0.1 µM: 89%
FGFR4; 1000 nM
  remaining binding at 1 µM: 89%
PRKG1; 100 nM
  remaining binding at 0.1 µM: 92%
PRKG1; 1000 nM
  remaining binding at 1 µM: 100%
EPHA4; 100 nM
  remaining binding at 0.1 µM: 91%
EPHA4; 1000 nM
  remaining binding at 1 µM: 100%
MKNK2; 100 nM
  remaining binding at 0.1 µM: 59%
MKNK2; 1000 nM
  remaining binding at 1 µM: 68%
CSNK1E; 100 nM
  remaining binding at 0.1 µM: 92%
CSNK1E; 1000 nM
  remaining binding at 1 µM: 91%
PIK3CA(E542K); 100 nM
  remaining binding at 0.1 µM: 81%
PIK3CA(E542K); 1000 nM
  remaining binding at 1 µM: 68%
CAMKK1; 100 nM
  remaining binding at 0.1 µM: 100%
CAMKK1; 1000 nM
  remaining binding at 1 µM: 100%
CDK8; 100 nM
  remaining binding at 0.1 µM: 88%
CDK8; 1000 nM
  remaining binding at 1 µM: 89%
TXK; 100 nM
  remaining binding at 0.1 µM: 75%
TXK; 1000 nM
  remaining binding at 1 µM: 78%
ABL2; 100 nM
  remaining binding at 0.1 µM: 100%
ABL2; 1000 nM
  remaining binding at 1 µM: 66%
CTK; 100 nM
  remaining binding at 0.1 µM: 100%
CTK; 1000 nM
  remaining binding at 1 µM: 91%
TLK1; 100 nM
  remaining binding at 0.1 µM: 88%
TLK1; 1000 nM
  remaining binding at 1 µM: 74%
PRP4; 100 nM
  remaining binding at 0.1 µM: 100%
PRP4; 1000 nM
  remaining binding at 1 µM: 74%
EPHA2; 100 nM
  remaining binding at 0.1 µM: 100%
EPHA2; 1000 nM
  remaining binding at 1 µM: 100%
TRKA; 100 nM
  remaining binding at 0.1 µM: 32%
TRKA; 1000 nM
  remaining binding at 1 µM: 8.3%
DAPK3; 100 nM
  remaining binding at 0.1 µM: 100%
DAPK3; 1000 nM
  remaining binding at 1 µM: 100%
PIP5K1A; 100 nM
  remaining binding at 0.1 µM: 70%
PIP5K1A; 1000 nM
  remaining binding at 1 µM: 76%
[1]; 100 nM
  remaining binding at 0.1 µM: 75%
[1]; 1000 nM
  remaining binding at 1 µM: 80%
LTK; 100 nM
  remaining binding at 0.1 µM: 100%
LTK; 1000 nM
  remaining binding at 1 µM: 100%
SRC; 100 nM
  remaining binding at 0.1 µM: 66%
SRC; 1000 nM
  remaining binding at 1 µM: 33%
MEK6; 100 nM
  remaining binding at 0.1 µM: 100%
MEK6; 1000 nM
  remaining binding at 1 µM: 94%
HIPK1; 100 nM
  remaining binding at 0.1 µM: 81%
HIPK1; 1000 nM
  remaining binding at 1 µM: 92%
CAMK1B; 100 nM
  remaining binding at 0.1 µM: 100%
CAMK1B; 1000 nM
  remaining binding at 1 µM: 100%
MAP4K2; 100 nM
  remaining binding at 0.1 µM: 88%
MAP4K2; 1000 nM
  remaining binding at 1 µM: 95%
MUSK; 100 nM
  remaining binding at 0.1 µM: 97%
MUSK; 1000 nM
  remaining binding at 1 µM: 95%
CIT; 100 nM
  remaining binding at 0.1 µM: 100%
CIT; 1000 nM
  remaining binding at 1 µM: 100%
RET(M918T); 100 nM
  remaining binding at 0.1 µM: 95%
RET(M918T); 1000 nM
  remaining binding at 1 µM: 38%
